≈ marks a conversion by molar mass, not a printed value.
settings: buffer; pH 7.4; 200.0 µM

Compound	solubility kinetic [µg/mL]
Cc1cc(C)cc(NC2=NCCCS2)c1	32.1 (≈ 146 µM)
O=C(c1nc(SCc2ccc([N+](=O)[O-])cc2)n2ccccc12)C(F)(F)F	< 0.3
N#CCCN(C(=O)COC(=O)c1ccc2c(c1)OCCO2)c1ccccc1	52 (≈ 142 µM)
CCS(=O)(=O)Nc1cccc(C(=O)O)c1	30.5 (≈ 133 µM)
CC(C)(C)NC(=O)NC(=O)CN1CCN(Cc2ccccc2)CC1	45.3 (≈ 136 µM)
CC1CCN(S(=O)(=O)c2ccccc2)CC1	25.8 (≈ 108 µM)
O=C(O)c1ccccc1C(=O)N1CCN(S(=O)(=O)c2cccc(C(F)(F)F)c2)CC1	> 66.4
CCC(=O)c1cn(CC(=O)Nc2ccccc2Cl)c2ccccc12	0.8 (≈ 2.35 µM)
CC(=O)c1ccc(OC(C)C(=O)Nc2cccc(S(=O)(=O)NCc3ccco3)c2)cc1 (centres undefined)	> 66.4
COc1cc(C(=O)NCC(=O)Nc2c(C)cccc2C)ccc1OCC(=O)N1CCOCC1	> 68.3
CC1(C(=O)O)CCC(C(=O)Nc2ccc(Cl)c(Cl)c2)C1(C)C (centres undefined)	> 51.6
S=C(NCc1cccs1)Nc1cccc2ccccc12	30.5 (≈ 102 µM)
O=C(O)Cc1csc(-c2ccc(F)cc2)n1	32.2 (≈ 136 µM)
COc1ccccc1CCC(=O)OCC(=O)NC1CCCC1	> 45.8
Cc1ccc(NC(=S)N2CCc3[nH]c4ccccc4c3C2)cc1	0.8 (≈ 2.49 µM)
Cc1ccc(NC(=O)C2CC2)cc1S(=O)(=O)N1CCOCC1	> 48.7
CCOc1ccc(S(=O)(=O)NCCc2ccccn2)cc1	> 46
Cn1cccc/c1=N\c1cccc[n+]1C.[I-]	> 49.1
COc1cccc(OC)c1/C=C/C(=O)NC1CCCCC1	5.8 (≈ 20 µM)
CC(CCc1ccccc1)NC(=O)CN(C)Cc1ccccc1F (centres undefined)	48.4 (≈ 147 µM)
CC(OC(=O)c1c[nH]c2ccccc12)C(=O)N1CCCC1 (centres undefined)	> 42.9
COC(=O)c1ccc(Cl)c(NC(=O)c2cccc([N+](=O)[O-])c2C)c1	0.7 (≈ 2.01 µM)
COc1ccc(CNC(=O)COC(=O)c2ccccn2)cc1	> 45
CN(C)c1cccc(C(=O)N/C=C/n2cnc3cc(C(F)(F)F)ccc32)c1	0.4 (≈ 1.07 µM)

Compound	solubility kinetic [µg/mL]
S=C1NCN(Cc2ccco2)CN1	> 29.6
O=C(c1cc(S(=O)(=O)N2CCOCC2)ccc1Cl)N1CCCCC1CO (centres undefined)	> 60.4
C=CCNC(=O)C(=O)Nc1cc2c3c(c1)CCC(=O)N3CCC2	> 47
Cc1ccc(S(=O)(=O)NCc2ccncc2)cc1C	> 41.5
CSc1ccccc1NC(=O)COC(=O)c1ccc(O)cc1	12.2 (≈ 38.4 µM)
CCN(CC(=O)NC1CCCC1)S(=O)(=O)c1ccc(F)cc1	> 49.3
Cc1cccc(N2CC(C(=O)O)CC2=O)c1C (centres undefined)	> 35
Cc1ccc(NC(=S)N2CCN(c3ccccn3)CC2)cc1C	1.1 (≈ 3.37 µM)
CC(C)C(OC(=O)c1cccs1)C(=O)NCc1ccccc1 (centres undefined)	29.4 (≈ 92.6 µM)
O=C(CN1CCN(C(=O)c2ccccc2)CC1)NC(=O)NCCC1=CCCCC1	> 59.8
CCOC(=O)N1CCN(C(=O)COC(=O)c2ccc(Cl)nc2)CC1	> 53.4
Clc1cccc2c1CCN(Cc1nc(-c3cnccn3)no1)C2	33.9 (≈ 103 µM)
CCOC(=O)N1CCN(C(=O)c2ccc(S(=O)(=O)Nc3ccc(C)cc3)cc2)CC1	> 64.7
COc1ccc(C(=O)N[C@H](C(=O)Nc2sccc2C(N)=O)C(C)C)cc1	> 56.3
CN(C)CCCNc1nc(-c2ccccc2)nc2ccccc12.Cl	44.1
O=[N+]([O-])c1cccc(-c2ccc(CN3CCN(c4ccccc4)CC3)o2)c1	1.4 (≈ 3.85 µM)
O=C(O)c1csc(-c2cccc(Cl)c2)n1	33.9 (≈ 141 µM)
CCSCc1nc(N)nc(NCCc2ccccc2)n1	34.7 (≈ 120 µM)
CN(C(=O)CSc1nnc(N)s1)C1CCCCC1	> 43
COc1ccc(CNCCc2ccc(Cl)cc2Cl)cc1	2.1 (≈ 6.77 µM)
Cc1cc(SCC(=O)c2ccc(O)c(O)c2)nc2ccccc12	3.5 (≈ 10.8 µM)
Cc1c(NCc2ccccc2O)c(=O)n(-c2ccccc2)n1C	> 46.4
Cc1c(NC(=O)Nc2ccc3c(c2)OCO3)cccc1[N+](=O)[O-]	0.8 (≈ 2.54 µM)
CCOC(=O)c1sc(NC(=O)CSC(=S)N2CCOCC2)nc1C	0.6 (≈ 1.54 µM)

Compound	solubility kinetic [µg/mL]
CC(C)c1ccc(NC(=O)NCc2cccnc2)cc1	> 40.4
CCOc1cc(C(N)=O)cc(Br)c1OCc1ccccc1	12.8 (≈ 36.5 µM)
O=C(Cc1ccccc1Cl)Nc1nc2ccccc2[nH]1	2.6 (≈ 9.1 µM)
CCOC(=O)CC1C(=O)NCCN1C(=O)c1ccc(C)cc1 (centres undefined)	> 45.7
O=C(O)CC(CC(=O)Nc1ccc(Oc2ccccc2)cc1)c1ccccc1 (centres undefined)	> 56.3
CCOc1ccc(NC(=O)CCN2C(=O)c3cccc([N+](=O)[O-])c3C2=O)cc1	16.4 (≈ 42.8 µM)
Oc1[nH]c(=S)sc1C=C1N=c2ccccc2=N1	> 39.2
O=C(NC1CCNCC1)C1CCCCC1	> 31.5
Cc1ccc(C)c(NC(=O)C(CC(=O)O)Cc2ccccc2)c1 (centres undefined)	> 46.7
COC(=O)c1ccc(CSC(=N)N)o1	27.6 (≈ 129 µM)
CC1CCCCC1NC(=O)COC(=O)/C=C/c1ccco1 (centres undefined)	22.6 (≈ 77.6 µM)
COc1ccc(C(C)NC(=O)CCc2ccccc2)cc1 (centres undefined)	40.8 (≈ 144 µM)
CC1CCCCN1C(=O)c1cc(-c2ccc3c(c2)OCO3)on1 (centres undefined)	39.9 (≈ 127 µM)
O=C(CSc1ncccn1)N1CCCCCC1	> 37.7
O=C(O)CSCC(=O)N1CCCCC1	> 32.6
Cc1noc(C)c1COc1ccc(C(=O)NCc2cccs2)cc1	16.5 (≈ 48.2 µM)
Cc1noc2ncnc(Oc3ccc(C(C)(C)C)cc3)c12	< 0.2
O=S(=O)(NCC1COc2ccccc2O1)c1ccccc1F (centres undefined)	> 48.5
Cc1cc2cc(CNC(=O)Nc3ccccc3)ccc2[nH]1	15.6 (≈ 55.8 µM)
O=C(Nc1cccc(S(=O)(=O)NCc2ccco2)c1)c1ccc(Cl)cc1	3 (≈ 7.68 µM)
CCOC(=O)C1=CCN(Cc2ccccc2)CC1.Cl	37.8
CC(C)Cc1ccc(S(=O)(=O)NCC2CCCO2)cc1 (centres undefined)	33.6 (≈ 113 µM)
COc1ccccc1CC(=O)NC1CCN(Cc2ccccc2)CC1	> 50.8
CCC(=O)c1cn(CC(=O)Nc2ccccc2)c2ccccc12	< 0.3

Compound	solubility kinetic [µg/mL]
COc1ccccc1NS(=O)(=O)c1cc(NC(=O)c2cc(F)c(F)c(F)c2F)ccc1N1CCOCC1	3.6 (≈ 6.67 µM)
COc1ccccc1NS(=O)(=O)c1cc(NC(=O)C2CCCO2)ccc1C (centres undefined)	> 58.6
COc1ccc(C(C)=O)cc1CN1C(=O)NC2(CCCC2)C1=O	44.9 (≈ 142 µM)
O=C(CN1C(=O)NC2(CCCC2)C1=O)NCC1CCCO1 (centres undefined)	38.5 (≈ 130 µM)
O=C(NC1CCCCC1)c1cccnc1Sc1ccccc1	11.2 (≈ 35.8 µM)
Cc1cccc(C)c1NC(=O)CCn1cnc2ccccc2c1=O	> 48.2
CCCN(C(=O)CCc1ccc(OC)cc1)c1c(N)n(Cc2ccccc2)c(=O)[nH]c1=O	8.9 (≈ 20.4 µM)
COc1cccc(S(=O)(=O)Nc2noc3ccccc23)c1	37.6 (≈ 124 µM)
Cc1ccc(CC(CC(=O)O)C(=O)Nc2ccc(Cl)cc2)cc1 (centres undefined)	48.6 (≈ 146 µM)
O=S(=O)(O)c1cccnc1SCc1ccccc1	41 (≈ 146 µM)
CCN1CCCC1CNC(=O)C(=O)NC (centres undefined)	> 32
O=C(NCCCO)/C(=C\c1ccco1)NC(=O)c1ccco1	> 45.6
COc1cc(/C=C/C(=O)OCC(=O)N2CCCc3ccccc32)ccc1O	33.1 (≈ 90.1 µM)
CCOC(=O)c1ccc(Nc2ncccc2[N+](=O)[O-])cc1	1 (≈ 3.48 µM)
Cc1noc(C)c1C(=O)N1CCN(c2ccccc2O)CC1	44.9 (≈ 149 µM)
Cc1ccc(NC(=O)CN2C(=O)NC3(CCCC3)C2=O)c(Cl)c1	> 50.4
Cc1ccc(C)c(S(=O)(=O)c2c[nH]c(=S)[nH]c2=O)c1	36.6 (≈ 123 µM)
Oc1ccc(N=Cc2c(O)ccc3ccccc23)cc1	< 0.6
CS(=O)(=O)c1ccccc1C(=O)Nc1ccc2sccc2c1	33.8 (≈ 102 µM)
COc1ccc(C2C(C#N)=C(N)Oc3cc(N)ccc32)cc1 (centres undefined)	27.4 (≈ 93.4 µM)
OCc1c(Cl)nc2ccccn12	> 27.4
O=C(Nc1ccc(OC(F)F)cc1)c1ccccn1	31.5 (≈ 119 µM)
CCCC1C2C(=O)N(c3cccc(C)c3)C(=O)C2ON1c1ccccc1 (centres undefined)	51.1 (≈ 146 µM)
CCOc1ncccc1C(=O)N=c1sccn1C	> 39.5

Compound	solubility kinetic [µg/mL]
O=C(NCc1cccnc1)C(=O)Nc1nccs1	20.4 (≈ 77.8 µM)
Cc1ccc(CNS(=O)(=O)c2c(C)[nH]c(=O)[nH]c2=O)cc1	> 46.4
Cc1ccc(C(=O)OCC(=O)NCCN2C(=O)CSC2=O)cc1[N+](=O)[O-]	> 57.2
CC(=O)c1ccc(Nc2nc(-c3cccnc3)cs2)cc1	0.9 (≈ 3.05 µM)
Cc1ccc(NC(=O)CCc2ccccc2)cc1S(=O)(=O)N1CCOCC1	56.7 (≈ 146 µM)
C=CCOc1ccc(/C=C/C(=O)OCC(=O)NC2CCCCCCC2)cc1	< 0.8
COC(=O)CC(CP(=O)([O-])CN(C)C=O)C(=O)OC (centres undefined)	27.9
O=C(NC1CCCC1)C(=O)c1c[nH]c2ccccc12	12.1 (≈ 47.2 µM)
CCC(C)(C)NC(=S)Nc1ccccc1C	> 35.5
CCCNC(=O)COC(=O)c1c2c(nc3ccccc13)CCC2	45.5 (≈ 146 µM)
COc1ccc(-c2csc(Nc3ccccn3)n2)cc1OC	5.5 (≈ 17.6 µM)
CC(C)Sc1ccc([N+](=O)[O-])cc1C(=O)Nc1ccncc1	40.8 (≈ 129 µM)
Cc1ccc(NC2Sc3ccccc3NC2=O)cc1 (centres undefined)	9.6 (≈ 35.5 µM)
COc1ccc(-n2c(C)cc(-c3cn4cccc(C)c4n3)c2C)cc1	11.9 (≈ 35.9 µM)
COc1ccc(C(CNC(=O)c2cc(S(=O)(=O)NCc3ccco3)ccc2C)N(C)C)cc1 (centres undefined)	> 70.7
O=C(COC(=O)c1cccnc1Cl)c1ccc(F)cc1	42.7 (≈ 145 µM)
CCCCOc1ccc(C(=O)N2CCN(c3ncccn3)CC2)cc1	12.2 (≈ 35.8 µM)
O=C(NC(=S)NC12CC3CC(CC(C3)C1)C2)c1ccc(F)cc1	2.3 (≈ 6.92 µM)
COc1ccc(OCC(=O)Nc2ccc3c(c2)C(=O)NC3=O)cc1	2.4 (≈ 7.36 µM)
O=C(Nc1ccc(S(=O)(=O)N2CCCCC2)cc1)C1CCCO1 (centres undefined)	39.9 (≈ 118 µM)
O=C(CN1CCN(c2ccc(Cl)cc2[N+](=O)[O-])CC1)N1CCOCC1	> 55.3
Nc1ncn([C@@H]2O[C@H](CO)[C@@H](O)[C@H]2O)c(=O)n1	> 36.6
Cc1ccc(-c2nc(=O)[nH]c3ccccc23)cc1	25.8 (≈ 109 µM)

Reference: PubChem BioAssay AID1996
